# Test results published in patent US20240393292A1, “ALLERGY ANTIGEN AND EPITOPE THEREOF” (HOYU CO., LTD., priority 2019, published 2024).
# System: IgE antibodies from patients
# Test: Wheat epitope mapping (2): overlapping 10-amino-acid peptide fragments shifted by one amino acid;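 on Rank of partial sequence as epitope binding to IgE antibody: key = sequence deemed particularly important within the common 15-residue sequence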;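 on epitope sequence binding to IgE antibody, rank (Key/Preferably/More preferably): key of grades: preferably = shorter partial sequence still acting as epitope; more preferably = sequence improving IgE binding; key = particularly important sequence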
# Assay type: binding, human
# Protocol: The peptides to be synthesized were shifted by one amino acid.
# The library was prepared by the same procedure as described above in (A), and the presence or absence of binding of an IgE antibody present in the serum of a patient to each peptide fragment was measured by the same technique as described above. Numeric values determined from images obtained as a result of carrying out only the procedures (1) and (4) to (6) described above in the subsection titled (3) Spotting of cellulose-bound peptide solution were used as control values. The control value of each peptide was subtracted from numeric values determined from images obtained from results about the serum of patients, and the obtained value of the difference was compared with values of the peptides serving as the basis of overlapping.
# Chemiluminescence intensity in images obtained by measurement was converted into a numeric value in the same manner as in (A). Numeric values determined from images obtained as a result of carrying out only the procedures (1) and (4) to (6) described above in the subsection titled (3) Spotting of cellulose-bound peptide solution (secondary antibody measurement values) were used as control values. The control value of each peptide was subtracted from numeric values determined from images obtained from results about the serum of patients. When values obtained using the sequences (SEQ ID NOs: 29, 131, 191, 281, 346, 414, 493, 562, 640, 706, 776, 899, 974, 1010, 1089, 1142, 1166, 1209, 1257, 1297, 1367, 1403, 1508, 1566, 1598, 1608, 1685, 1753, 1789, 1836, 1895, 1977, 2004, 2027, 2068, 2154, 2217, 2265, 2309, 2342, 2419, 2491, 2545, 2613, 2631, 2674, 2701, 2774, 2809 and 2830) serving as the basis of overlapping were defined as 100%, it was determined that: a peptide having a value of the difference that was less than 30% had no binding activity against IgE antibodies; a peptide having a value of the difference that was 30% or more and less than 50% had binding activity, albeit poor, against IgE antibodies; a peptide having a value of the difference that was 50% or more and less than 70% had binding activity, albeit somewhat poor, against IgE antibodies; and a peptide having a value of the difference that was 70% or more had equivalent or good binding activity against IgE antibodies and was thus a peptide had remaining binding activity against IgE antibodies.
# [1] = serum of patient P25 (WDEIA), sequence without X
# [2] = serum of patient P36 (WDEIA), sequence without X
# [3] = serum of patient P21 (WDEIA), sequence without X
# [4] = serum of patient P2 (WDEIA), sequence without X
# [5] = serum of patient G6 (adult, general immediate type allergy to wheat), sequence without X
substance,measurement,setting,value
1883 (VRTLQ; REGION 1..5: note = epitope) [compound 1883],"epitope sequence binding to IgE antibody, rank (Key/Preferably/More preferably)",serum of patient P34 (WDEIA),Key
2673 (EAAEMNKR; REGION 1..8: note = epitope) [compound 2673],"Epitope sequence binding to IgE antibody, rank of the sequence","serum of patient G7 (adult, general immediate type allergy to wheat), partial sequence",Key
1937 (QQFPGQQQ; REGION 1..8: note = epitope) [compound 1937],"epitope sequence binding to IgE antibody, rank (Key/Preferably/More preferably)",serum of patient P19 (WDEIA),Preferably
2470 (LKAWSGK; REGION 1..7: note = epitope) [compound 2470],"Epitope sequence binding to IgE antibody, rank of the sequence (Key/Preferably/More preferably)","serum of patient P52 (child, general immediate type allergy to wheat), sequence without X",Preferably
1632 (YNPD; REGION 1..4: note = epitope) [compound 1632],Rank of partial sequence as epitope binding to IgE antibody,"serum of patient P29 (WDEIA), sequence without X",Key
2737 (KIGG; REGION 1..4: note = epitope) [compound 2737],"Epitope sequence binding to IgE antibody, rank of the sequence","serum of patient P30 (WDEIA), partial sequence",Key
1844 (TVRTLQ; REGION 1..6: note = epitope) [compound 1844],"epitope sequence binding to IgE antibody, rank (Key/Preferably/More preferably)",serum of patient P9 (WDEIA),Key
1577 (PFPQTQQ; REGION 1..7: note = epitope) [compound 1577],Rank of partial sequence as epitope binding to IgE antibody,"serum of patient P16 (WDEIA), sequence without X",More preferably
2709 (YKIGGIGT; REGION 1..8: note = epitope) [compound 2709],"Epitope sequence binding to IgE antibody, rank of the sequence","serum of patient P16 (WDEIA), partial sequence",Preferably
1864 (TVRTLQR; REGION 1..7: note = epitope) [compound 1864],"epitope sequence binding to IgE antibody, rank (Key/Preferably/More preferably)",serum of patient P25 (WDEIA),Key
2314 (SRYDAIR; REGION 1..7: note = epitope) [compound 2314],"Epitope sequence binding to IgE antibody, rank of the sequence (Key/Preferably/More preferably)",[1],Key
2303 (LGGIDK; REGION 1..6: note = epitope) [compound 2303],"Epitope sequence binding to IgE antibody, rank of the sequence (Key/Preferably/More preferably)","serum of patient G7 (adult, general immediate type allergy to wheat), sequence without X",Key
1254 (PIQQQP; REGION 1..6: note = epitope) [compound 1254],"Epitope sequence binding to IgE antibody, rank of the sequence",[2],Key
1702 (SQVIIM; REGION 1..6: note = epitope) [compound 1702],Rank of partial sequence as epitope binding to IgE antibody,[1],Key
1542 (QVPLVQQQQ; REGION 1..9: note = epitope) [compound 1542],Rank of partial sequence as epitope binding to IgE antibody,[3],More preferably
1853 (TVRTLQR; REGION 1..7: note = epitope) [compound 1853],"epitope sequence binding to IgE antibody, rank (Key/Preferably/More preferably)",serum of patient P17 (WDEIA),Preferably
2713 (KIGG; REGION 1..4: note = epitope) [compound 2713],"Epitope sequence binding to IgE antibody, rank of the sequence","serum of patient P17 (WDEIA), partial sequence",Key
2594 (QLVQQL; REGION 1..6: note = epitope) [compound 2594],"Epitope sequence binding to IgE antibody, rank of the sequence","serum of patient P36 (WDEIA), partial sequence",Preferably
2720 (IGGIGTVPVG; REGION 1..10: note = epitope) [compound 2720],"Epitope sequence binding to IgE antibody, rank of the sequence","serum of patient P25 (WDEIA), partial sequence",Preferably
1909 (VPLVQ; REGION 1..5: note = epitope) [compound 1909],"epitope sequence binding to IgE antibody, rank (Key/Preferably/More preferably)",serum of patient P7 (WDEIA),Key
2652 (KEAAEM; REGION 1..6: note = epitope) [compound 2652],"Epitope sequence binding to IgE antibody, rank of the sequence","serum of patient P31 (WDEIA), partial sequence",Preferably
1368 (KPWQQQ; REGION 1..6: note = epitope) [compound 1368],"Epitope sequence binding to IgE antibody, rank of the sequence (Key/Preferably/More preferably/Further preferably)",[4],Key
2556 (QLVQQLCC; REGION 1..8: note = epitope) [compound 2556],"Epitope sequence binding to IgE antibody, rank of the sequence","serum of patient P20 (WDEIA), partial sequence",Key
1887 (YTVRTLQRTV; REGION 1..10: note = epitope) [compound 1887],"epitope sequence binding to IgE antibody, rank (Key/Preferably/More preferably)","serum of patient G5 (adult, general immediate type allergy to wheat)",Preferably
1660 (YNPDK; REGION 1..5: note = epitope) [compound 1660],Rank of partial sequence as epitope binding to IgE antibody,"serum of patient G1 (adult, general immediate type allergy to wheat), sequence without X",Key
2264 (NYRVAI; REGION 1..6: note = epitope) [compound 2264],"Epitope sequence binding to IgE antibody, rank of the sequence (Key/Preferably/More preferably)",[5],Key
1301 (SINVEN; REGION 1..6: note = epitope) [compound 1301],"Epitope sequence binding to IgE antibody, rank of the sequence (Key/Preferably/More preferably/Further preferably)",[4],Key
1667 (NPDKVP; REGION 1..6: note = epitope) [compound 1667],Rank of partial sequence as epitope binding to IgE antibody,"serum of patient G3 (adult, general immediate type allergy to wheat), sequence without X",Key
1190 (QQFPPQQPYP; REGION 1..10: note = epitope) [compound 1190],"Epitope sequence binding to IgE antibody, rank of the sequence",[3],Key
1615 (YNPD; REGION 1..4: note = epitope) [compound 1615],Rank of partial sequence as epitope binding to IgE antibody,"serum of patient P17 (WDEIA), sequence without X",Key
1480 (YLQPQQPIS; REGION 1..9: note = epitope) [compound 1480],Rank of partial sequence as epitope binding to IgE antibody,"serum of patient P33 (WDEIA), sequence without X",Key
1837 (VRTLQRT; REGION 1..7: note = epitope) [compound 1837],"epitope sequence binding to IgE antibody, rank (Key/Preferably/More preferably)",serum of patient P3 (WDEIA),Preferably
1495 (YLQPQQPI; REGION 1..8: note = epitope) [compound 1495],Rank of partial sequence as epitope binding to IgE antibody,[5],Key
1357 (NVEN; REGION 1..4: note = epitope) [compound 1357],"Epitope sequence binding to IgE antibody, rank of the sequence",[2],Key
1894 (VRTLQ; REGION 1..5: note = epitope) [compound 1894],"epitope sequence binding to IgE antibody, rank (Key/Preferably/More preferably)","serum of patient G9 (adult, general immediate type allergy to wheat)",Key
2464 (WSGKTENEE; REGION 1..9: note = epitope) [compound 2464],"Epitope sequence binding to IgE antibody, rank of the sequence (Key/Preferably/More preferably/Further preferably)","serum of patient P50 (child, general immediate type allergy to wheat), sequence without X",More preferably
1220 (IQQQP; REGION 1..5: note = epitope) [compound 1220],"Epitope sequence binding to IgE antibody, rank of the sequence","serum of patient P9 (WDEIA), sequence without X",Key
2723 (KIGG; REGION 1..4: note = epitope) [compound 2723],"Epitope sequence binding to IgE antibody, rank of the sequence","serum of patient P26 (WDEIA), partial sequence",Key
2569 (QLVQQL; REGION 1..6: note = epitope) [compound 2569],"Epitope sequence binding to IgE antibody, rank of the sequence","serum of patient P27 (WDEIA), partial sequence",Preferably
2356 (YVTEIV; REGION 1..6: note = epitope) [compound 2356],"Epitope sequence binding to IgE antibody, rank of the sequence (Key/Preferably/More preferably)","serum of patient P14 (WDEIA), sequence without X",Key
1422 (YLQPQQ; REGION 1..6: note = epitope) [compound 1422],"Epitope sequence binding to IgE antibody, rank of the sequence","serum of patient P10 (WDEIA), sequence without X",Preferably
1718 (EAANFT; REGION 1..6: note = epitope) [compound 1718],"epitope sequence binding to IgE antibody, rank (Key/Preferably/More preferably)",serum of patient P36 (WDEIA),More preferably
1830 (LPKFL; REGION 1..5: note = epitope) [compound 1830],"epitope sequence binding to IgE antibody, rank (Key/Preferably/More preferably)","serum of patient G6 (adult, general immediate type allergy to wheat)",Key
2692 (YKGPTL; REGION 1..6: note = epitope) [compound 2692],"Epitope sequence binding to IgE antibody, rank of the sequence","serum of patient P33 (WDEIA), partial sequence",Key
2267 (KRVIERFEK; REGION 1..9: note = epitope) [compound 2267],"Epitope sequence binding to IgE antibody, rank of the sequence (Key/Preferably/More preferably)","serum of patient P5 (WDEIA), sequence without X",Preferably
